Source: patent US20240246968A1, “SMALL MOLECULE INHIBITORS OF KRAS G12C MUTANT” (Merck Sharp & Dohme LLC, priority 2021, published 2024)

Key:
[1] = target: Gppcp-bound recombinant K-Ras4B G12C mutant protein (amino acids 1-169, C51S/C80L/C118S) (Homo sapiens, UniProt P01116, C118S/C51S/C80L/G12C); assay: KRASG12C binding assay (LC-MS, compound binding rate); conditions: test compound final concentration 0.5 μM, 25° C., 1 hour
Outline: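 Gppcp-bound K-Ras4B G12C (1-169; C51S/C80L/C118S), 50 nM in TBS with 0.1 mM TCEP, 0.25 mM MgCl2, 50 μM Gppcp, exposed to compound at 0.5 μM final for 1 h at 25 °C. Quenched with formic acid and analysed by intact-protein ESI LC-MS. Binding rate is the mono-adduct signal over total KRAS signal; graded A (≥80%) to E (<20%).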

MIA PaCa-2 cells = assay: Growth inhibition activity on KRAS-G12C mutant cell line (MIA PaCa-2), CellTiter-Glo 3D; assay type: cell-based, human; conditions: MIA PaCa-2, 3-day culture with compound
Outline: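 Cells in RPMI1640 with 10% FBS were seeded in U-bottom plates and cultured 1 day at 37 °C, 5% CO2, then exposed to compound (0.2% DMSO final) for 3 more days. Viability read by CellTiter-Glo 3D luminescence; IC50 from growth inhibition relative to untreated wells.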

[2] = target: T1, interaction between recombinant K-Ras4B G12C mutant protein and cRAF RAS-binding domain (cRAF-RBD) (Homo sapiens, UniProt P01116, G12C); assay: Inhibitory activity on interaction between KRAS G12C and cRAF (Alpha technology); assay type: biochemical; conditions: GMPPNP-bound KRAS G12C incubated with compound at 25° C. for 1 hour, then cRAF-RBD; Alpha signal
T1 construct: made in house; host or cells: E. coli
Outline: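 GMPPNP-loaded His-tagged KRAS G12C (aa 1-169, E. coli) preincubated with compound 1 h at 25° C in Tris pH 7.5, 100 mM NaCl, 1 mM MgCl2, TCEP, 0.1% Tween 20; cRAF-RBD (aa 50-132) added, 1.5 h RT, Alpha signal read. DMSO = 0%, GDP-bound KRAS = 100% inhibition; IC50 from dose titration fit.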

Row | SMILES | IC50 (MIA PaCa-2 cells) [µM] | IC50 [2] [µM] | IC50 (MIA PaCa-2 cells; Homo sapiens, MIA PaCa-2, 72 h) [µM] | binding rate [1]
1 | COc1cc2c(cc1-c1cccn3c(C(=O)c4cc(F)c(NC(=O)/C=C/CN[C@H]5CC[C@H](OC)CC5)c(F)c4)ccc13)ncn2C [Example 1, (E)-N-(2,6-difluoro-4-(8-(6-methoxy-1-methyl-1H-benzo[d]imidazol-5-yl)indolizine-3-carbonyl)phenyl)-4-(((1r,4r)-4-methoxycyclohexyl)amino)but-2-enamide] | – | 0.058 | 0.091 | A (A binding rate of 80% or more is rated “A”)
2 | CO[C@H]1CC[C@H](NC/C=C/C(=O)Nc2c(F)cc(C(=O)c3ccc4c(-c5cc6nc(C)n(C)c6cc5C(F)(F)F)cccn34)cc2F)CC1 [Example 2, (E)-N-(4-(8-(1,2-dimethyl-6-(trifluoromethyl)-1H-benzo[d]imidazol-5-yl)indolizine-3-carbonyl)-2,6-difluorophenyl)-4-(((1r,4r)-4-methoxycyclohexyl)amino)but-2-enamide] | – | 0.06 | 0.057 | A (A binding rate of 80% or more is rated “A”)
3 | CCc1nc2cc(-c3cccn4c(C(=O)c5cc(F)c(NC(=O)/C=C/CN[C@H]6CC[C@H](OC)CC6)c(F)c5)ccc34)c(C(F)(F)F)cc2n1C [Example 3, (E)-N-(4-(8-(2-ethyl-1-methyl-6-(trifluoromethyl)-1H-benzo[d]imidazol-5-yl)indolizine-3-carbonyl)-2,6-difluorophenyl)-4-(((1r,4r)-4-methoxycyclohexyl)amino)but-2-enamide] | – | 0.072 | 0.052 | A (A binding rate of 80% or more is rated “A”)
4 | COc1cc2c(cc1-c1cccn3c(C(=O)c4cc(F)c(NC(=O)/C=C/CN[C@H]5CC[C@H](OC)CC5)c(F)c4)ccc13)nc(C)n2C [Example 4, (E)-N-(2,6-difluoro-4-(8-(6-methoxy-1,2-dimethyl-1H-benzo[d]imidazol-5-yl)indolizine-3-carbonyl)phenyl)-4-(((1r,4r)-4-methoxycyclohexyl)amino)but-2-enamide] | – | 0.074 | 0.042 | A (A binding rate of 80% or more is rated “A”)
5 | COc1cc2c(cc1-c1cccn3c(C(=O)c4cc(F)c(NC(=O)/C=C/CNC(C)(C)C)c(F)c4)ccc13)nc(C)n2C [Example 5, (E)-4-(tert-butylamino)-N-(2,6-difluoro-4-(8-(6-methoxy-1,2-dimethyl-1H-benzo[d]imidazol-5-yl)indolizine-3-carbonyl)phenyl)but-2-enamide] | – | 0.075 | 0.045 | A (A binding rate of 80% or more is rated “A”)
6 | CO[C@H]1CC[C@H](NC/C=C/C(=O)Nc2c(F)cc(C(=O)c3cnc4c(-c5cc6nc7n(c6cc5C(F)(F)F)CCC7)cccn34)cc2F)CC1 [Example 6, (E)-N-(2,6-difluoro-4-(8-(7-(trifluoromethyl)-2,3-dihydro-1H-benzo[d]pyrrolo[1,2-a]imidazol-6-yl)imidazo[1,2-a]pyridine-3-carbonyl)phenyl)-4-(((1r,4r)-4-methoxycyclohexyl)amino)but-2-enamide] | – | 0.07 | 0.094 | B (a binding rate of 60% or more and less than 80% is rated “B”)
7 | CC(C)(C)NC/C=C/C(=O)Nc1c(F)cc(C(=O)c2cnc3c(-c4cc5nc6n(c5cc4C(F)(F)F)CCC6)cccn23)cc1F [Example 7, (E)-4-(tert-butylamino)-N-(2,6-difluoro-4-(8-(7-(trifluoromethyl)-2,3-dihydro-1H-benzo[d]pyrrolo[1,2-a]imidazol-6-yl)imidazo[1,2-a]pyridine-3-carbonyl)phenyl)but-2-enamide] | – | 0.069 | 0.16 | B (a binding rate of 60% or more and less than 80% is rated “B”)
8 | COCC(C)(C)NC/C=C/C(=O)Nc1c(F)cc(C(=O)c2ccc3c(-c4cc5ncn(C)c5cc4C(F)(F)F)cccn23)cc1F [Example 8] | – | 0.089 | 0.13 | A (A binding rate of 80% or more is rated “A”)
9 | Cn1cnc2cc(-c3cccn4c(C(=O)c5cc(F)c(NC(=O)/C=C/CNC6CCOCC6)c(F)c5)ccc34)c(C(F)(F)F)cc21 [Example 9, (E)-N-(2,6-difluoro-4-(8-(1-methyl-6-(trifluoromethyl)-1H-benzo[d]imidazol-5-yl)indolizine-3-carbonyl)phenyl)-4-((tetrahydro-2H-pyran-4-yl)amino)but-2-enamide] | – | 0.027 | 0.082 | A (A binding rate of 80% or more is rated “A”)
10 | CCc1cc2c(ncn2C)c(Cl)c1-c1cccn2c(C(=O)c3cc(F)c(NC(=O)/C=C/CN[C@H]4CC[C@H](OC)CC4)c(F)c3)ccc12 [Example 10, (E)-N-(4-(8-(4-chloro-6-ethyl-1-methyl-1H-benzo[d]imidazol-5-yl)indolizine-3-carbonyl)-2,6-difluorophenyl)-4-(((1r,4r)-4-methoxycyclohexyl)amino)but-2-enamide] | – | 0.069 | 0.094 | A (A binding rate of 80% or more is rated “A”)
11 | Cn1cnc2cc(-c3cccn4c(C(=O)c5cc(F)c(NC(=O)/C=C/CNC6(C)CCOCC6)c(F)c5)ccc34)c(C(F)(F)F)cc21 [Example 11, (E)-N-(2,6-difluoro-4-(8-(1-methyl-6-(trifluoromethyl)-1H-benzo[d]imidazol-5-yl)indolizine-3-carbonyl)phenyl)-4-((4-methyltetrahydro-2H-pyran-4-yl)amino)but-2-enamide] | – | 0.021 | 0.068 | A (A binding rate of 80% or more is rated “A”)
12 | CCc1cc2c(nc(C)n2C)c(Cl)c1-c1cccn2c(C(=O)c3cc(F)c(NC(=O)/C=C/CNC(C)(C)C)c(F)c3)ccc12 [Example 16, (E)-4-(tert-butylamino)-N-(4-(8-(4-chloro-6-ethyl-1,2-dimethyl-1H-benzo[d]imidazol-5-yl)indolizine-3-carbonyl)-2,6-difluorophenyl)but-2-enamide] | – | 0.064 | 0.048 | A (A binding rate of 80% or more is rated “A”)

More lines, main results first:

Row | IC50 (MIA PaCa-2 cells) [µM] | IC50 [2] [µM] | IC50 (MIA PaCa-2 cells; Homo sapiens, MIA PaCa-2, 72 h) [µM] | SMILES | binding rate [1]
13 | 0.0216 | 0.0192 | – | COc1c(-c2cccn3c(C(=O)c4cc(F)c(NC(=O)/C=C/CNC5(C)CC5)c(F)c4)c(C)nc23)c(C(F)(F)F)cc2c1nc(C)n2C (single isomer, unassigned) [Example 109-1, (E)-N-(2,6-difluoro-4(8-(4-methoxy-1,2-dimethyl-6-(trifluoromethyl)-1H-benzo[d]imidazol-5-yl)-2-methylimidazo[1,2-a]pyridine-3-carbonyl)phenyl)-4-((1-methylcyclopropyl)amino)but-2-enamide] | A (A binding rate of 80% or more is rated “A”)
14 | 0.784 | 1.21 | – | COc1c(-c2cccn3c(C(=O)c4cc(F)c(NC(=O)/C=C/CNC5(C)CC5)c(F)c4)c(C)nc23)c(C(F)(F)F)cc2c1nc(C)n2C (single isomer, unassigned) [Example 109-2, (E)-N-(2,6-difluoro-4(8-(4-methoxy-1,2-dimethyl-6-(trifluoromethyl)-1H-benzo[d]imidazol-5-yl)-2-methylimidazo[1,2-a]pyridine-3-carbonyl)phenyl)-4-((1-methylcyclopropyl)amino)but-2-enamide] | D (a binding rate of 20% or more and less than 40% is rated “D”)
15 | 0.0465 | 0.00871 | – | C=Cc1cc(C(=O)c2cc(F)c(NC(=O)/C=C/CNC3(C)CC3)c(F)c2)n2cccc(-c3c(OC)cc4c(nc(C)n4C)c3F)c12 (single isomer, unassigned) [Example 111-1, (E)-N-(2,6-difluoro-4-(8-(4-fluoro-6-methoxy-1,2-dimethyl-1H-benzo[d]imidazol-5-yl)-1-vinylindolizine-3-carbonyl)phenyl)-44-((1-methylcyclopropyl)amino)but-2-enamide] | A (A binding rate of 80% or more is rated “A”)
16 | 0.191 | 0.0174 | – | C=Cc1cc(C(=O)c2cc(F)c(NC(=O)/C=C/CNC3(C)CC3)c(F)c2)n2cccc(-c3c(OC)cc4c(nc(C)n4C)c3F)c12 (single isomer, unassigned) [Example 111-2, (E)-N-(2,6-difluoro-4-(8-(4-fluoro-6-methoxy-1,2-dimethyl-1H-benzo[d]imidazol-5-yl)-1-vinylindolizine-3-carbonyl)phenyl)-44-((1-methylcyclopropyl)amino)but-2-enamide] | A (A binding rate of 80% or more is rated “A”)
17 | 0.532 | 0.362 | – | COc1c(-c2cc(F)cn3c(C(=O)c4cc(F)c(NC(=O)/C=C/CNC5(C)CC5)c(F)c4)cnc23)c(C(F)(F)F)cc2c1nc(C)n2C (single isomer, unassigned) [Example 112-2, (E)-N-(2,6-difluoro-4-(6-fluoro-8-(4-methoxy-1,2-dimethyl-6-(trifluoromethyl)-1H-benzo[d]imidazol-5-yl)imidazo[1,2-a]pyridine-3-carbonyl)phenyl)-4-((1-methylcyclopropyl)amino)but-2-enamide] | A (A binding rate of 80% or more is rated “A”)
